Experimental data as given in US20260347372A1, “SMALL MOLECULE INHIBITORS OF KRAS G12D MUTANT” (MERCK SHARP & DOHME LLC, priority 2023, published 2026).

Experiments:
Type in all cases: biochemical
[1] = target: T1, KRAS G12C (Homo sapiens, UniProt P01116, G12C); experiment: SOS-catalyzed nucleotide exchange assay, KRAS G12C (Procedure B; Example 14); conditions: 1 hour compound incubation, SOS1 and GMPPNP 30 minutes, read-out: KRAS G12C GNE IC50
T1 construct: KRAS G12C (amino acids 1-169, N-terminal His-tag); made in house; host or cells: E. coli
Protocol: (§1) Procedure for SOS-Catalyzed Nucleotide Exchange Assay for KRAS-G12C/D/V/WT (Procedure B)
(§2) Recombinant KRAS G12C (amino acids 1-169, SEQ ID NO:9), KRAS G12D (amino acids 1-169, SEQ ID NO:10), KRAS G12V (amino acids 1-169, SEQ ID NO:11), KRAS WT (amino acids 1-169, SEQ ID NO:12) and SOS1 (amino acids 564-1049, SEQ ID NO:13) proteins were expressed in E. coli and purified by affinity chromatography. To prepare each BODIPY™ FL GDP-bound KRAS protein, 50 μM KRAS proteins were incubated with 0.5 mM BODIPY™ FL GDP (Invitrogen, G22360) in a loading buffer (20 mM Tris-HCl pH 7.5, 50 mM NaCl, 1 mM DTT and 2.5 mM EDTA) for 1 hour on ice. After the incubation, MgCl2 was added to a final concentration of 10 mM, followed by an incubation at room temperature for 30 minutes. The mixtures were allowed to pass through a NAP-5 column to remove free nucleotides and purified BODIPY™ FL GDP-bound KRAS G12C, G12D, G12V and WT proteins were used for compound evaluation.
(§3) The inhibitory activity of compounds on recombinant KRAS is measured by the displacement of the bound BODIPY™ GDP. […] Displacement of BODIPY™ FL GDP by Guanosine-5′-[(β,γ)-imido]triphosphate, Tetralithium salt (GMPPNP) was measured by calculating the ratio of fluorescence intensities of BODIPY™ FL before and after the exchange reaction. […] Dose response curves were analyzed using a 4-parameter logistic model to calculate IC50 values. […]

[2] = target: KRAS G12V (Homo sapiens, UniProt P01116, G12V); experiment: SOS-catalyzed nucleotide exchange assay, KRAS G12V (Procedure B; Example 14); design: KRAS G12V (amino acids 1-169, N-terminal His-tag); made in house; host or cells: E. coli; conditions: 1 hour compound incubation, SOS1 and GMPPNP 30 minutes, read-out: KRAS G12V GNE IC50
Protocol: as §1, §2, §3

[3] = target: KRAS G12D (Homo sapiens, UniProt P01116, G12D); experiment: SOS-catalyzed nucleotide exchange assay, KRAS G12D (Procedure B; Example 14); design: KRAS G12D (amino acids 1-169, N-terminal His-tag); made in house; host or cells: E. coli; conditions: 1 hour compound incubation, SOS1 and GMPPNP 30 minutes, read-out: KRAS G12D GNE IC50
Protocol: as §1, §2, §3

[4] = target: KRAS WT (Homo sapiens, UniProt P01116); experiment: SOS-catalyzed nucleotide exchange assay, KRAS WT (Procedure B; Example 14); design: KRAS WT (amino acids 1-169, N-terminal His-tag); made in house; host or cells: E. coli; conditions: 1 hour compound incubation, SOS1 and GMPPNP 30 minutes, read-out: KRAS WT GNE IC50
Protocol: as §1, §2, §3

Sequence of KRAS WT (P01116 with tags, fused parts or gaps isoform P01116-2): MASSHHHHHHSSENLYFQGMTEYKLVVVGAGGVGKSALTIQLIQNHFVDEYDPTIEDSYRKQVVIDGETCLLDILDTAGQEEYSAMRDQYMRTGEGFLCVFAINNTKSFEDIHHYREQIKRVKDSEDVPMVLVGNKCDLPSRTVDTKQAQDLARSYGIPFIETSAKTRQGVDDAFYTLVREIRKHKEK
T1 sequence (P01116 with tags, fused parts or gaps isoform P01116-2 G12C): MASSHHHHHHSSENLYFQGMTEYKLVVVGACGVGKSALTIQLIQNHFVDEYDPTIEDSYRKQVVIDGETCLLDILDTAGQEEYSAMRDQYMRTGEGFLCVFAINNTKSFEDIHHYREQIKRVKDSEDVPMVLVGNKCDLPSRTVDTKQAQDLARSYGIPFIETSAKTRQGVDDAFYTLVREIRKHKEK
Sequence of KRAS G12V (P01116 with tags, fused parts or gaps isoform P01116-2 G12V): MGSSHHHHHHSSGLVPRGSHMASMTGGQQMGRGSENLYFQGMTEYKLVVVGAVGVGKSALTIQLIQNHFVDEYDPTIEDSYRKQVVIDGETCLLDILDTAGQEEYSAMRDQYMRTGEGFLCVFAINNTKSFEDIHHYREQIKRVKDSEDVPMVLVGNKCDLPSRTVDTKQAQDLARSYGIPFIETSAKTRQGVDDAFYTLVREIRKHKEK
Sequence of KRAS G12D (P01116 with tags, fused parts or gaps isoform P01116-2 G12D): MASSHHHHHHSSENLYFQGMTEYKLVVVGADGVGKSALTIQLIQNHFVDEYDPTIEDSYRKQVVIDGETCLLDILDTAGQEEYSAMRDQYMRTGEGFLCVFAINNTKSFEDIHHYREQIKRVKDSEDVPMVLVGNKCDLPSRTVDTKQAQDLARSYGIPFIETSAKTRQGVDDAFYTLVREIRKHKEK

IC50 [1]: > 5 µM
IC50 [2]: > 5 µM
IC50 [3]: 0.11 µM
IC50 [4]: > 5 µM
SMILES: FC(F)c1ccc2[nH]ncc2c1-c1nccc2c1sc1nc(OC[C@@]34CCCN3C[C@H](F)C4)nc(N3C[C@H]4CC[C@@H](C3)N4)c12 [Ex-14, 4-((1R,5S)-3,8-diazabicyclo[3.2.1]octan-3-yl)-8-(5-(difluoromethyl)-1H-indazol-4-yl)-2-(((2R,7aS)-2-fluorotetrahydro-1H-pyrrolizin-7a(5H)-yl)methoxy)pyrido[4′,3′:4,5]thieno [2,3-d]pyrimidine]
